Reference: US12077503B2, “Substituted cyclic amides and their use as herbicides” (FMC CORPORATION, priority 2015, dated 2024)

What was measured:
Assay type in all cases: in vivo
[1] = test system: barnyardgrass (Echinochloa crus-galli); test: Test G Pre-Emergence Protocol; conditions: Echinochloa crus-galli, pre-emergence, 312 h, evaluated after 13 days; for pest or weed control at 15.625 g/ha: 15.625 g ai/ha, read-out: Barnyard grass damage rating (100=total damage to plant; 0=no damage to plant); for pest or weed control at 62.5 g/ha: 62.5 g ai/ha, 100=total damage to plant, 0=no damage to plant, read-out: plant damage rating, Barnyardgrass; for pest or weed control at 250 g/ha: 250 g ai/ha, read-out: Barnyardgrass damage rating (100=total damage to plant; 0=no damage to plant)
How it was run: (§1)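 Spraying took place one day after sowing, at 15.625, 62.5 or 250 g/ha, using an acetone/water (50:50) spray solution containing 0.5% Tween 20. Plants were kept under glasshouse conditions (24/16 °C, 14 h light, 65% humidity, watered twice daily), and injury was rated 0–100 at day 13.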

[2] = test system: ivy-leaved morning glory (Ipomoea hederacea); test: Test G Pre-Emergence Protocol; conditions: Ipomoea, pre-emergence, 312 h, evaluated after 13 days; for pest or weed control at 15.625 g/ha: 15.625 g ai/ha, read-out: Morning-glory, Ivy-leaved damage rating (100=total damage to plant; 0=no damage to plant); for pest or weed control at 62.5 g/ha: 62.5 g ai/ha, 100=total damage to plant, 0=no damage to plant, read-out: plant damage rating, Morningglory, Ivy-leaved; for pest or weed control at 250 g/ha: 250 g ai/ha, read-out: Morningglory, Ivy-leaved damage rating (100=total damage to plant; 0=no damage to plant)
How it was run: as §1

[3] = test system: redroot pigweed (Amaranthus retroflexus); test: Test G Pre-Emergence Protocol; conditions: Amaranthus retroflexus, pre-emergence, 312 h, evaluated after 13 days; for pest or weed control at 15.625 g/ha: 15.625 g ai/ha; for pest or weed control at 15.625 g/ha / pest or weed control at 250 g/ha: read-out: Pigweed, Redroot damage rating (100=total damage to plant; 0=no damage to plant); for pest or weed control at 62.5 g/ha: 62.5 g ai/ha, 100=total damage to plant, 0=no damage to plant, read-out: plant damage rating, Pigweed, Redroot; for pest or weed control at 250 g/ha: 250 g ai/ha
How it was run: as §1

[4] = test system: giant foxtail (Setaria faberi); test: Test G Pre-Emergence Protocol; conditions: Setaria faberi, pre-emergence, 312 h, evaluated after 13 days; for pest or weed control at 15.625 g/ha: 15.625 g ai/ha; for pest or weed control at 15.625 g/ha / pest or weed control at 250 g/ha: read-out: Foxtail, Giant damage rating (100=total damage to plant; 0=no damage to plant); for pest or weed control at 62.5 g/ha: 62.5 g ai/ha, 100=total damage to plant, 0=no damage to plant, read-out: plant damage rating, Foxtail, Giant; for pest or weed control at 250 g/ha: 250 g ai/ha
How it was run: as §1

[5] = test system: velvetleaf (Abutilon theophrasti); test: Test G Pre-Emergence Protocol; conditions: Abutilon theophrasti, pre-emergence, 312 h, evaluated after 13 days; for pest or weed control at 15.625 g/ha: 15.625 g ai/ha; for pest or weed control at 15.625 g/ha / pest or weed control at 250 g/ha: read-out: Velvetleaf damage rating (100=total damage to plant; 0=no damage to plant); for pest or weed control at 62.5 g/ha: 62.5 g ai/ha, 100=total damage to plant, 0=no damage to plant, read-out: plant damage rating, Velvetleaf; for pest or weed control at 250 g/ha: 250 g ai/ha
How it was run: as §1

corn (Zea mays) [6] = test: Test G Pre-Emergence Protocol; conditions: Zea mays, pre-emergence, 312 h, evaluated after 13 days; for plant injury at 15.625 g/ha: 15.625 g ai/ha; for plant injury at 15.625 g/ha / plant injury at 250 g/ha: read-out: Corn damage rating (100=total damage to plant; 0=no damage to plant); for plant injury at 62.5 g/ha: 62.5 g ai/ha, 100=total damage to plant, 0=no damage to plant, read-out: plant damage rating, Corn; for plant injury at 250 g/ha: 250 g ai/ha
How it was run: as §1

[7] = test system: barnyardgrass (Echinochloa crus-galli); test: Test G Post-Emergence Protocol; conditions: Echinochloa crus-galli, post-emergence, 312 h; for pest or weed control at 15.625 g/ha: 15.625 g ai/ha, evaluated after 13 days (100=total damage to plant; 0=no damage to plant), read-out: Barnyardgrass damage rating; for pest or weed control at 62.5 g/ha: 62.5 g ai/ha, read-out: Barnyardgrass damage rating (100=total damage to plant; 0=no damage to plant); for pest or weed control at 62.5 g/ha / pest or weed control at 250 g/ha: evaluated after 13 days; for pest or weed control at 250 g/ha: 250 g ai/ha, read-out: damage to plant, Barnyardgrass (100=total damage to plant; 0=no damage to plant)
How it was run: (§2)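 A glasshouse post-emergence test: 8-day-old plants sprayed at 15.625, 62.5 or 250 g/ha, then grown at 24/16 °C day/night with 14 h light and 65% humidity. Damage rated 13 days later, 0–100.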

[8] = test system: ivy-leaved morning glory (Ipomoea hederacea); test: Test G Post-Emergence Protocol; conditions: Ipomoea, post-emergence, 312 h; for pest or weed control at 15.625 g/ha: 15.625 g ai/ha, evaluated after 13 days (100=total damage to plant; 0=no damage to plant), read-out: Morningglory, Ivy-leaved damage rating; for pest or weed control at 62.5 g/ha: 62.5 g ai/ha, read-out: Morningglory, Ivy-leaved damage rating (100=total damage to plant; 0=no damage to plant); for pest or weed control at 62.5 g/ha / pest or weed control at 250 g/ha: evaluated after 13 days; for pest or weed control at 250 g/ha: 250 g ai/ha, read-out: damage to plant, Morningglory, Ivy-leaved (100=total damage to plant; 0=no damage to plant)
How it was run: as §2

[9] = test system: redroot pigweed (Amaranthus retroflexus); test: Test G Post-Emergence Protocol; conditions: Amaranthus retroflexus, post-emergence, 312 h; for pest or weed control at 15.625 g/ha: 15.625 g ai/ha, evaluated after 13 days (100=total damage to plant; 0=no damage to plant), read-out: Pigweed, Redroot damage rating; for pest or weed control at 62.5 g/ha: 62.5 g ai/ha, read-out: Pigweed, Redroot damage rating (100=total damage to plant; 0=no damage to plant); for pest or weed control at 62.5 g/ha / pest or weed control at 250 g/ha: evaluated after 13 days; for pest or weed control at 250 g/ha: 250 g ai/ha, read-out: damage to plant, Pigweed, Redroot (100=total damage to plant; 0=no damage to plant)
How it was run: as §2

[10] = test system: giant foxtail (Setaria faberi); test: Test G Post-Emergence Protocol; conditions: Setaria faberi, post-emergence, 312 h; for pest or weed control at 15.625 g/ha: 15.625 g ai/ha, evaluated after 13 days (100=total damage to plant; 0=no damage to plant), read-out: Foxtail, Giant damage rating; for pest or weed control at 62.5 g/ha: 62.5 g ai/ha, read-out: Foxtail, Giant damage rating (100=total damage to plant; 0=no damage to plant); for pest or weed control at 62.5 g/ha / pest or weed control at 250 g/ha: evaluated after 13 days; for pest or weed control at 250 g/ha: 250 g ai/ha, read-out: damage to plant, Foxtail, Giant (100=total damage to plant; 0=no damage to plant)
How it was run: as §2

[11] = test system: velvetleaf (Abutilon theophrasti); test: Test G Post-Emergence Protocol; conditions: Abutilon theophrasti, post-emergence, 312 h; for pest or weed control at 15.625 g/ha: 15.625 g ai/ha, evaluated after 13 days (100=total damage to plant; 0=no damage to plant), read-out: Velvetleaf damage rating; for pest or weed control at 62.5 g/ha: 62.5 g ai/ha, read-out: Velvetleaf damage rating (100=total damage to plant; 0=no damage to plant); for pest or weed control at 62.5 g/ha / pest or weed control at 250 g/ha: evaluated after 13 days; for pest or weed control at 250 g/ha: 250 g ai/ha, read-out: damage to plant, Velvetleaf (100=total damage to plant; 0=no damage to plant)
How it was run: as §2

corn (Zea mays) [12] = test: Test G Post-Emergence Protocol; conditions: Zea mays, post-emergence, 312 h; for plant injury at 15.625 g/ha: 15.625 g ai/ha, evaluated after 13 days (100=total damage to plant; 0=no damage to plant), read-out: Corn damage rating; for plant injury at 62.5 g/ha: 62.5 g ai/ha, read-out: Corn damage rating (100=total damage to plant; 0=no damage to plant); for plant injury at 62.5 g/ha / plant injury at 250 g/ha: evaluated after 13 days; for plant injury at 250 g/ha: 250 g ai/ha, read-out: damage to plant, Corn (100=total damage to plant; 0=no damage to plant)
How it was run: as §2

Row | Structure (SMILES) | pest or weed control at 15.625 g/ha [1] [%] | pest or weed control at 62.5 g/ha [1] [%] | pest or weed control at 250 g/ha [1] [%] | pest or weed control at 15.625 g/ha [2] [%] | pest or weed control at 62.5 g/ha [2] [%] | pest or weed control at 250 g/ha [2] [%] | pest or weed control at 15.625 g/ha [3] [%] | pest or weed control at 62.5 g/ha [3] [%] | pest or weed control at 250 g/ha [3] [%] | pest or weed control at 15.625 g/ha [4] [%] | pest or weed control at 62.5 g/ha [4] [%] | pest or weed control at 250 g/ha [4] [%] | pest or weed control at 15.625 g/ha [5] [%] | pest or weed control at 62.5 g/ha [5] [%] | pest or weed control at 250 g/ha [5] [%] | plant injury at 15.625 g/ha (corn (Zea mays) [6]) [%] | plant injury at 62.5 g/ha (corn (Zea mays) [6]) [%] | plant injury at 250 g/ha (corn (Zea mays) [6]) [%] | pest or weed control at 15.625 g/ha [7] [%] | pest or weed control at 62.5 g/ha [7] [%] | also measured
1 | Cc1c(Cl)ncnc1NC(=O)[C@@H]1C(=O)N(C)C[C@H]1c1ccc(C(F)(F)F)cc1 (racemic) [Compound 1581] | 0 | 0 | 0 | 0 | 0 | 0 | 0 | 0 | 0 | 0 | 0 | 0 | 0 | 0 | 0 | 0 | 0 | 0 | 0 | 0 | pest or weed control at 250 g/ha [7]: 10%; pest or weed control at 15.625 g/ha [8]: 0%; pest or weed control at 62.5 g/ha [8]: 0%; pest or weed control at 250 g/ha [8]: 0%; pest or weed control at 15.625 g/ha [9]: 0%; pest or weed control at 62.5 g/ha [9]: 0%; pest or weed control at 250 g/ha [9]: 0%; pest or weed control at 15.625 g/ha [10]: 0%; pest or weed control at 62.5 g/ha [10]: 0%; pest or weed control at 250 g/ha [10]: 0%; pest or weed control at 15.625 g/ha [11]: 0%; pest or weed control at 62.5 g/ha [11]: 0%; pest or weed control at 250 g/ha [11]: 0%; plant injury at 15.625 g/ha (corn (Zea mays) [12]): 0%; plant injury at 62.5 g/ha (corn (Zea mays) [12]): 0%; plant injury at 250 g/ha (corn (Zea mays) [12]): 0%
2 | COc1cncc(NC(=O)[C@@H]2C(=O)N(C)C[C@H]2c2ccc(C(F)(F)F)cc2)n1 (racemic) [Compound 1565] | 0 | 0 | 10 | 0 | 0 | 0 | 0 | 0 | 10 | 0 | 0 | 60 | 0 | 0 | 0 | 0 | 0 | 0 | 0 | 0 | pest or weed control at 250 g/ha [7]: 10%; pest or weed control at 15.625 g/ha [8]: 0%; pest or weed control at 62.5 g/ha [8]: 0%; pest or weed control at 250 g/ha [8]: 0%; pest or weed control at 15.625 g/ha [9]: 0%; pest or weed control at 62.5 g/ha [9]: 0%; pest or weed control at 250 g/ha [9]: 0%; pest or weed control at 15.625 g/ha [10]: 0%; pest or weed control at 62.5 g/ha [10]: 0%; pest or weed control at 250 g/ha [10]: 50%; pest or weed control at 15.625 g/ha [11]: 0%; pest or weed control at 62.5 g/ha [11]: 0%; pest or weed control at 250 g/ha [11]: 30%; plant injury at 15.625 g/ha (corn (Zea mays) [12]): 0%; plant injury at 62.5 g/ha (corn (Zea mays) [12]): 0%; plant injury at 250 g/ha (corn (Zea mays) [12]): 10%
